Source: patent US5354691A, “Polypeptides and derivatives thereof as well as their use in pharmaceutical and diagnostic compositions” (priority 1987, dated 1994)

How the values were obtained:
[1] = system: T-cell clones A2b and A2c; settings: from European patent application 0 262 710 / EP-A-0 181 364; cited from earlier work
T-cell clone A2b = experiment: T-cell clone proliferation (3H-thymidine uptake, stimulation index), clone A2b; format: cell-based, rat; settings: polypeptide with sequence homologous to antigen A 180-188
[2] = system: T-cell clones A2b and A2c; experiment: Stimulating activity on T-cell clones A2b and A2c, stated for both clones together; format: cell-based, rat

Substance: proteoglycan protein of cartilage: proteoglycan protein of cartilage (J.Biol.Chem. 261, 3519-3535)
- recognition by / response of T-cell clones A2b and A2c [1]: recognized

Substance: TFGLQPQDT [antigen from Epstein-Barr virus]
- response of T-cell clone A2b (T-cell clone A2b): responds

Substance: RARLQLELS [lamin A and C]
- response of the T-cell clones A2b and A2c [2]: react positively
